Experimental data reported in patent publication US10035792B2, “Resorcinol derivative as HSP90 inhibitor” (priority 2015, dated 2018).

Experiments:
A549 tumor cells = test: In vivo efficacy, A549 transplantation tumor in nude mice; settings: A549 xenograft, 50 mg/kg intravenously twice a week
Method: (§1) A549 tumor cells were subcutaneously inoculated in the right armpit of nude mice in 5×10^6 cells/mouse, to form a transplantion tumor. When the volume reached 100-200 mm^3, the animals were randomly divided according to tumor volume, into the negative control group (n=5), the positive control group groups (n=5 in each group), and the experimental groups (n=5 in each group). The experimental groups were respectively injected intravenously with the positive drug Luminespib (50 mg/kg) and compound 1 (50 mg/kg) at different concentrations, twice a week, and the negative control group was administrated an equal amount of solvent simultaneously. The length (A) and width (B) of the tumor were measured twice a week with a vernier caliper, and the tumor volume was calculated according to V=A×B^2/2. Relative tumor volume (RTV) was calculated as follows: RTV=Vt/V0, wherein Vt is the tumor volume at the end of the administration, and V0 is the tumor volume measured before separation and administration. The pharmacodynamic evaluation index of antitumor activity is relative tumor proliferation rate T/C (%), and the calculation formula is: T/C (%)=TRTV/CRTV×100%, wherein TRTV: RTV of the treatment group; CRTV: RTV of the negative control group. Efficacy evaluation criteria: T/C %>60% is inefficient; T/C %≤60% and P<0.05 by statistical treatment is effective. The tumor growth inhibition rate (TGI) was calculated as follows: TGI (%)={[(CVt−CV0)−(TVt−TV0)]/(CVt−CV0)}×100%
(§2) Wherein, CVt is the tumor volume of the control group at the end of the administration; CV0 is the tumor volume of the control group before separation and administration; TVt is the tumor volume of the administration group at the end of the administration; and TV0 is the tumor volume of the administration group before separation and administration. The difference in tumor volume between the administration group and the control group was examined by t-test. At the same time, the body weights of nude mice in each group were weighed twice a week to preliminarily evaluate the toxic side effects of the drug.

HSP90α = HSP90α (Homo sapiens (Human), UniProt P07900); test: Fluorescence polarization (FP) HSP90-alpha target binding assay; settings: fluorescence polarization; read-out: Target binding ability HSP90α FP IC50
How it was run: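 Displacement of 5 nM GM-BODIPY from 30 nM HSP90 measured by fluorescence polarization (ex 485/em 535 nm). Buffer: 100 mM Tris-Cl pH 7.4, 20 mM KCl, 6 mM MgCl2, 5 μg/mL BSA. Incubation 12–16 h at 4 °C. Percent inhibition from mP relative to compound-free and tracer-only controls.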

[1] = tested on: human lung cancer cell line A549; test: Tumor cell growth inhibition, SRB staining, A549; format: cell-based; settings: A549, 72 h
How it was run: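 Growth inhibition by SRB staining: 4000 cells/well seeded overnight, then compound at 100, 10, 1, 0.1 and 0.01 μM for 72 h in triplicate. Fixed with TCA, OD read at 515 nm. Inhibition rate taken against solvent control; experiment done twice.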

[2] = tested on: human colon cancer cell line HCT116; test: Tumor cell growth inhibition, SRB staining, HCT116; format: cell-based; settings: HCT-116, HCT116, 72 h
Method: The growth inhibition assay of tumor cells was detected by sulforhodamine B (SRB) staining method. The specific steps were as follows: inoculating human colon cancer cell line HCT116 and human lung cancer cell line A549 (purchased from American Type Culture Collection, ATCC) at the logarithmic growth phase into a 96-well micro culture plate at an appropriate concentration of 4000 cells/well, 100 μL for each well; after culturing overnight, adding with the compound at different concentrations (100, 10, 1, 0.1, 0.01 μM) to react for 72 h, wherein triplicate wells were set up for each concentration, and solvent control wells with the corresponding concentration and zero wells without cells were also set up. After the completion of the reaction, the culture medium was removed from the adherent cells, the later was added with 10% (w/v) trichloroacetic acid (100 μL/well) at 4° C. to fix for 1 h, and then washed five times with distilled water. After drying at room temperature, 100 μL of SRB solution (4 mg/mL, dissolved in 1% glacial acetic acid) was added into each well, followed by incubation and staining for 15 min at room temperature. The uncombined SRB was removed by washing five times with 1% glacial acetic acid. After drying at room temperature, 100 μL of 10 mM Tris solution was added into each well, and the optical density (OD) at 515 nm was measured by a […] microplate reader. The inhibition rate of the drug to tumor cell growth was calculated according to the following equation: Inhibition rate (%)=(OD of control well-OD of drug well)/OD of control well×100%. The experiment was repeated twice.

in vivo = test: in vivo; parameters: species or system SD rats; settings: male, SD, rat, iv, 1 mg/kg
Method: SD rats were used as the subject animals. The drug concentrations in plasma, lung and breast tissue were measured by LC/MS/MS method at different times after the compound of Example 67 was intravenously injected at the tails of rats. The tissue distribution of the compounds of the present invention in rats was studied and their pharmacokinetic characteristics were evaluated. 2.1 Experimental Drugs: Luminespib, Ganetespib and the compound of Example 67. Healthy adult male SD rats, 100-200 g, 9 rats in total, purchased from Shanghai Slack Laboratory Animal Co., Ltd. The appropriate amounts of the samples were weighed. All of Luminespib, Ganetespib and the compound 67 of the present invention were formulated into clear solutions in […] in 10% DMSO/14% Cremophor RH40/76% D5W, for intravenous injection. 9 SD male rats were divided into three groups, three rats in each group. After normal feeding, administrations were carried out in tails by intravenous injection at the dose of 1 mg/kg. Samples were collected from blood, lung and breast tissues in three group rats at 0.5 h, 6 h and 24 h after administration. The blood samples were centrifuged at 4° C., 3000 rpm for 15 min within half an hour after collection, to separate and obtain plasma samples. The resulting plasma samples were placed in polypropylene tubes and stored at −80° C. for LC/MS/MS analysis. After the collection of the blood samples, the animals were sacrificed with CO2, followed by collection of the tissue samples. Each of the tissue samples was washed twice with cold deionized water and adhered to filter papers. Each of the tissue samples was then homogenized several times in MeOH/15 mM PBS (1:2) (5 mL MeOH/15 mM PBS (1:2) per gram of tissue, with a dilution factor of 6) to ensure the formation of homogeneous phase. The whole process was carried out below freezing point temperature. The homogenized samples were quickly frozen by using dry ice and stored at −80° C. for bioanalysis. The contents of the test compound in rat plasma, lung and breast tissue after injection administration were measured by LC/MS/MS.

BT-474 tumor cells = test: In vivo efficacy, BT-474 breast cancer transplantation tumor in nude mice; settings: BT-474 xenograft
Method: as §1, with “BT-474 tumor” for “A549 tumor”, “group (n=6),” for “group (n=5),”, “groups (n=6” for “groups (n=5”, “drug Ganetespib (20” for “drug Luminespib (50”, “compound 67 (10 mg/kg and 20” for “compound 1 (50”, “concentrations, three times” for “concentrations, twice”
as §2

[3] = concentration in breast tissue (nM)
[4] = 10 mpk intravenously three times a week
[5] = 20 mpk intravenously three times a week

Compound: CCNC(=O)c1noc(-c2cc(C(C)C)c(O)cc2O)c1-c1ccc2c(c1)CCN(C)C2 [Example 1, 5-(2,4-dihydroxyl-5-isopropylphenyl)-N-ethyl-4-(2-methyl-1,2,3,4-tetrahydroisoquinolin-6-yl)isoxazole-3-carboxamide]
- TGI (%) Day 7 (A549 tumor cells): 20%
- TGI (%) Day 11 (A549 tumor cells): 40%
- TGI (%) Day 14 (stopping administration) (A549 tumor cells): 63%
- TGI (%) Day 17 (A549 tumor cells): 71%
- TGI (%) Day 28 (A549 tumor cells): 60%
- IC50 (HSP90α): < 0.02 µM
- EC50 [1]: < 0.02 µM
- EC50 [2]: < 0.02 µM

Compound: CCNC(=O)c1noc(-c2cc(C(C)C)c(O)cc2O)c1-c1ccc2c(c1)N(C)CCC2 [Example 2, 5-(2,4-dihydroxyl-5-isopropylphenyl)-N-ethyl-4-(1-methyl-1,2,3,4-tetrahydroquinolin-7-yl)isoxazole-3-carboxamide]
- IC50 (HSP90α): 0.02 to 0.1 µM
- EC50 [2]: 0.02 to 0.1 µM

Compound: CCNC(=O)c1noc(-c2cc(C(C)C)c(O)cc2O)c1-c1ccc2c(c1)CCCN2C [Example 3, 5-(2,4-dihydroxyl-5-isopropylphenyl)-N-ethyl-4-(1-methyl-1,2,3,4-tetrahydroquinolin-6-yl)isoxazole-3-carboxamide]
- IC50 (HSP90α): 0.02 to 0.1 µM
- EC50 [2]: 0.02 to 0.1 µM

Compound: CCNC(=O)c1nsc(-c2cc(C(C)C)c(O)cc2O)c1-c1ccc2c(c1)CCN(C)C2 [Example 13, 5-(2,4-dihydroxyl-5-isopropyl-phenyl)-N-ethyl-4-(2-methyl-1,2,3,4-tetrahydroisoquinolin-6-yl)isothiazole-3-carboxamide]
- IC50 (HSP90α): > 0.1 µM
- EC50 [2]: > 0.1 µM

Compound: CCNC(=O)c1noc(-c2cc(C(C)C)c(O)cc2O)c1C1=CC2CN(C)CC2C1 (stereo not drawn) [Example 14, 5-(2,4-dihydroxyl-5-isopropyl-phenyl)-N-ethyl-4-(2-methyl-1,2,3,3a,4,6a-hexahydrocyclopenta[c]pyrrol-5-yl)isoxazole-3-carboxamide]
- IC50 (HSP90α): < 0.02 µM
- EC50 [2]: < 0.02 µM

Compound: CCNC(=O)c1onc(-c2cc(C(C)C)c(O)cc2O)c1-c1ccc2c(c1)CCNC2 [Example 67, 3-(2,4-dihydroxyl-5-isopropylphenyl)-N-ethyl-4-(1,2,3,4-tetrahydroisoquinolin-6-yl)isoxazole-5-carboxamide]
- IC50 (HSP90α): < 0.02 µM
- breast tissue exposure dose (in vivo): 7226 nM·h
- plasma exposure dose (in vivo): 415 nM·h
- pulmonary exposure dose (in vivo): 30933 nM·h
- concentration at 0.5 h (in vivo; [3]): 395 nM
- concentration at 6 h (in vivo; [3]): 376 nM
- concentration at 24 h (in vivo; [3]): 199 nM
- concentration at 0.5 h (in vivo; plasma concentration (nM)): 115 nM
- concentration at 6 h (in vivo; plasma concentration (nM)): 9.98 nM
- concentration at 24 h (in vivo; plasma concentration (nM)): 3.72 nM
- concentration at 0.5 h (in vivo; pulmonary concentration (nM)): 3040 nM
- concentration at 6 h (in vivo; pulmonary concentration (nM)): 1530 nM
- concentration at 24 h (in vivo; pulmonary concentration (nM)): 613 nM
- EC50 [1]: < 0.02 µM
- TGI (%) Day 21 (BT-474 tumor cells; [4]): 137%
- TGI (%) Day 35 (BT-474 tumor cells; [4]): 120%
- TGI (%) Day 21 (BT-474 tumor cells; [5]): 135%
- TGI (%) Day 35 (BT-474 tumor cells; [5]): 129%

Compound: CC(C)c1cc(-c2n[nH]c(=O)n2-c2ccc3c(ccn3C)c2)c(O)cc1O [Ganetespib]
- concentration at 0.5 h (in vivo; [3]): 352 nM
- concentration at 6 h (in vivo; [3]): 70.9 nM
- concentration at 0.5 h (in vivo; plasma concentration (nM)): 267 nM
- concentration at 6 h (in vivo; plasma concentration (nM)): 4.46 nM
- concentration at 0.5 h (in vivo; pulmonary concentration (nM)): 1010 nM
- concentration at 6 h (in vivo; pulmonary concentration (nM)): 101 nM
- TGI (%) Day 21 (BT-474 tumor cells; [5]): 124%
- TGI (%) Day 35 (BT-474 tumor cells; [5]): 108%

Compound: CCNC(=O)c1noc(-c2cc(C(C)C)c(O)cc2O)c1-c1ccc(CN2CCOCC2)cc1 [Luminespib]
- TGI (%) Day 7 (A549 tumor cells): 18%
- TGI (%) Day 11 (A549 tumor cells): 34%
- TGI (%) Day 14 (stopping administration) (A549 tumor cells): 49%
- TGI (%) Day 17 (A549 tumor cells): 52%
- TGI (%) Day 28 (A549 tumor cells): 35%
- pulmonary exposure dose (in vivo): 5284 nM·h
- concentration at 0.5 h (in vivo; [3]): 104 nM
- concentration at 6 h (in vivo; [3]): 61.4 nM
- concentration at 0.5 h (in vivo; plasma concentration (nM)): 67.1 nM
- concentration at 0.5 h (in vivo; pulmonary concentration (nM)): 1000 nM
- concentration at 6 h (in vivo; pulmonary concentration (nM)): 257 nM
- concentration at 24 h (in vivo; pulmonary concentration (nM)): 35.9 nM
